From US10976306B2, “Protein degradation inducing tag and usage thereof” (Tokyo University of Science Foundation, priority 2015, dated 2021)
Non-standard residues stand in square brackets, D forms with d. Residues, ends and D or L forms follow the SMILES beside them. Nle = CCCC[C@H](N)C(=O)O

Legend:
[1] = molecular target: β5 (chymotrypsin-like activity) of 20S proteasome (Homo sapiens, UniProt P28074); assay: 20S proteasome inhibitory activity, AMC fluorescent substrate Suc-LLVY-AMC
[2] = molecular target: T1, β1 (caspase-like activity) of 20S proteasome (Homo sapiens, UniProt P28072); assay: 20S proteasome inhibitory activity, AMC fluorescent substrate Z-LLE-AMC; assay type: biochemical
T1 construct: purchased Bioscience (20S Proteasome StressXpress Assay Kit Gold)

[3] = molecular target: β2 (trypsin-like activity) of 20S proteasome (Homo sapiens, UniProt Q99436); assay: 20S proteasome inhibitory activity, AMC fluorescent substrate Bz-VGR-AMC
E. coli DHFR = molecular target: T2, E. coli DHFR (Escherichia coli, UniProt P0ABQ4); assay: Thermal shift assay of affinity with forcedly expressed target protein in HeLa cells; assay type: binding; details: bortezomib alone
T2 construct: expressed in transfected cells; host or cells: HeLa cells, transient transfection with pMIR DsRed-IRES-ecDHFR-HA-GFP

Which IC50 [1] does the source give for CCCC[C@@H](C=O)NC(=O)[C@H](CC(C)C)NC(=O)[C@H](CC(C)C)NC(C)=O [ALLN] (Ac-Leu-Leu-[Nle]-aldehyde) here?
The IC50 was 1.15 µM.

And the IC50 ([2]; 20S proteasome 0.1 μg, 30 min preincubation, substrate 100 μM, 1 hour)?
Its IC50 is 12.4 µM.

What about the “inhibitory activity against β1” value ([2]; FIGS. 4A, 7A, compared with the original proteasome inhibitor alone) of the same compound?
Its value is “not significantly inhibited”.

What about the IC50 [3] of the same compound?
Its IC50 is 5.25 µM.

With CC(C)C[C@H](NC(=O)[C@H](Cc1ccccc1)NC(=O)c1cnccn1)B(O)O [Bortezomib] as the compound, how does the “interaction with E. coli DHFR” value (E. coli DHFR) read?
The value was “did not interact with E. coli DHFR”.

For CC(C)C[C@H](NC(=O)CNC(=O)c1cc(Cl)ccc1Cl)B(O)O [MLN2238], which IC50 [3] is on record?
The IC50 was 6.4 µM.
